In the assay the test system is CEM cells HIV-1 protection, formazan growth assay. The experiment in a line: NCI AIDS Antiviral Assay. To be noted: for IC50: measured here: growth of uninfected CEM cells. The method, boiled down: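 Five concentrations of each compound were applied to infected and uninfected human CEM cells. Protection from HIV-1 was judged from growth measured with a soluble formazan assay.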

The structures appear in SMILES notation. Active and inactive are the calls of the source.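 How the source made its calls: active means compounds giving half or more protection of infected cells from virus-caused growth loss, again on retest; inactive means the rest.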 Some results are limits rather than exact numbers.

Turning to `N#CNC1=NC(C(=O)O)CC(=O)N1CCc1c[nH]c2ccccc12` (configuration not stated), the EC50 (usually the concentration giving half of the maximal effect) was more than 200 µM and the IC50 (commonly the concentration that inhibits the measured activity by half) amounted to 50.1 µM.

On to `CC1N(N2C(=O)CS(=O)(=O)C2C)C(=O)CS1(=O)=O` (configuration not stated), for which the EC50 was more than 200 µM and the IC50 is more than 200 µM.

Take `COc1cc(/C=C2\SC(=S)N(/C=C3\C(=O)C=C(C)OC3=O)C2=O)cc(OC)c1OC`: the EC50 is more than 200 µM and the IC50 was 18.2 µM.

In the case of `[N-]=[N+]=Nc1c(Cc2ccccc2)c(Cl)nc2ccccc12`, the EC50 is more than 200 µM and the IC50 turned out to be 19.1 µM.

Regarding `C=C[C@H]1[C@@H]2CCC3=CC(=O)CC[C@@H]3C2CC[C@]1(C)C(=O)O` (some centres not stated), the EC50 was more than 200 µM and the IC50 was more than 200 µM.

Regarding `COC(=O)c1c2c(cc3c1CC1(Cc4cc5c(c(C=O)c4C1)CCC5)C3)CCC2` (configuration not stated), the EC50 is more than 200 µM and the IC50 was found to be 20 µM.

For the compound `CCC[CH2][Sn]([CH2]CCC)([O]C(=O)c1cc(F)cc(F)c1)[O][Sn]([CH2]CCC)([CH2]CCC)[O]C(=O)c1cc(F)cc(F)c1`, the EC50 was more than 9.12 µM and the IC50 is 1.78 µM.

On to `CC1CN1c1c(C(=O)/C=C/c2ccc(F)cc2)c(-c2ccccc2)nn(C)c1=O` (configuration not stated), for which the EC50 is more than 120 µM and the IC50 stood at 11 µM.

For `CNc1nc(N)c(N=O)c(Nc2ccc(Br)cc2)n1`, the EC50 was more than 200 µM and the IC50 came to 170 µM.

On to `CCN(CCCl)c1cc(C(=O)NCCCN(C)CCCNC(=O)c2cc(N(CC)CCCl)c([N+](=O)[O-])cc2[N+](=O)[O-])c([N+](=O)[O-])cc1[N+](=O)[O-]`, for which the EC50 was more than 200 µM and the IC50 turned out to be 10.7 µM.

`CC(=O)CC(C)=O.CCN(CC)CC[C-]=O.[Pd+2]`: the EC50 was more than 200 µM and the IC50 turned out to be 5.89 µM.

For the compound `COc1ccccc1Nc1nc(N)nc(N)c1N`, the EC50 is more than 200 µM and the IC50 came out at 36.3 µM.

For the compound `O=S1c2ccccc2S(=O)c2ccccc21` (configuration not stated), the EC50 was more than 200 µM and the IC50 is more than 200 µM.

Take `CC1(C)CC(=O)C2=C(C1)NC(SCC(=O)O)=C(C#N)C2c1ccc(Br)cc1` (configuration not stated): the EC50 was more than 200 µM and the IC50 was determined as 178 µM.

As for `COc1c2c(cc3ccc(=O)oc13)C(Cl)C(Cl)O2` (configuration not stated), the EC50 is more than 77.6 µM and the IC50 stood at 21.9 µM.

For `NC(=O)C12CC3CC(CC(F)(C3)C1)C2`, the EC50 is more than 1260 µM and the IC50 was more than 1260 µM.

Regarding `O=c1c(O)c(O)c(=O)c(=O)c1=O`, the result was inactive.

For the compound `CN(C)C=NCc1ccc2c(c1)OCO2`, the EC50 was 51.3 µM and the IC50 was determined as 479 µM.

With `CC1(C)c2ccccc2N2C(c3ccccc3)=NOC21C` (configuration not stated), the EC50 is more than 25.7 µM and the IC50 was more than 25.7 µM.

On to `C/C(=C1/CCC/C(=C(/C)c2ccccc2)C1=O)c1ccccc1`, for which the EC50 is more than 9.12 µM and the IC50 was more than 9.12 µM.

With `O=C1NN=C2CCCCCC12` (configuration not stated), the EC50 was more than 589 µM and the IC50 was more than 589 µM.

As to `COc1ccc2nc3ccc(OC)cc3c(S(=O)(=O)Cc3ccc([N+](=O)[O-])cc3)c2c1`, the EC50 is more than 200 µM and the IC50 is more than 200 µM.

`O=Nc1ccc(O)c2ncccc12`: the outcome was inactive.

In the case of `CC1CCCc2c(C#N)c(N)nc(-c3ccc(Cl)cc3)c21` (configuration not stated), the EC50 was more than 200 µM and the IC50 was 26.9 µM.

As for `CC(=O)Oc1c(OC(C)=O)c(-c2ccc(O)c(O)c2)c(O)c(O)c1-c1ccc(O)cc1`, the EC50 was more than 200 µM and the IC50 was determined as 27.5 µM.

As for `O=[N+]([O-])c1cccc2nc3ccccc3c(NCCCN3CCOCC3)c12`, the EC50 was more than 0.2 µM and the IC50 worked out at 0.0631 µM.

With `Cc1ccc2c(c1)sc1nnc(S(C)(=O)=O)n12`, the EC50 was more than 200 µM and the IC50 was 11.2 µM.

Turning to `CN1C(=O)N/C(=C\c2ccc(S(=O)(=O)N/N=C\C(O)C(O)C(O)CO)cc2)C1=O` (configuration not stated), the EC50 is more than 200 µM and the IC50 is more than 200 µM.

As to `O=C1NC(O)c2cc(CO)ccc2O1` (configuration not stated), the EC50 was more than 200 µM and the IC50 came to 95.5 µM.

For `O[C@]12CCCC[C@H]1CCC2`, the outcome was inactive.

With `O=C1OC(=O)c2c(O)cc(O)c(=O)cc21`, the EC50 is more than 331 µM and the IC50 is 209 µM.

Consider `CCOC(=O)c1nc2cc(C(F)(F)F)ccc2nc1Oc1ccc(C(=O)OC)cc1`, for which the EC50 is more than 200 µM and the IC50 was determined as 95.5 µM.

Take `Cc1ccc(-c2nnc3s/c(=C\c4ccc(N(C)C)cc4)c(=O)n23)cc1`: the EC50 is more than 27.5 µM and the IC50 was determined as 16.2 µM.

As to `O=CC(=C(I)I)c1ccccc1`, the EC50 is more than 2 µM and the IC50 was 1.05 µM.

Take `O=C(Nc1ccc(Cl)cc1Cl)C(=O)C(C(=O)c1ccncc1)C1OC(=O)c2ccccc21` (configuration not stated): the EC50 is more than 178 µM and the IC50 was more than 178 µM.

As for `C/C(CC(=O)N(C(C)C)C(C)C)=N\NC(=O)c1ccncc1`, the EC50 was more than 61.7 µM and the half-inhibitory concentration (IC50) is more than 61.7 µM.

For `CCOC(=O)c1sc(SC)nc1N`, the EC50 was more than 200 µM and the half-inhibitory concentration (IC50) was more than 200 µM.

`O=C(C/C(=N\NC(=O)C[n+]1ccccc1)C(=O)Nc1nc2ccc([N+](=O)[O-])cc2s1)CC(c1ccccc1)c1c(O)c2ccccc2oc1=O` (configuration not stated): the EC50 is more than 2.75 µM and the IC50 was more than 2.75 µM.

In the case of `C#CCN(Cc1ccc2nc(-c3ccccc3)c(Cl)nc2c1)c1cc(OC)c(OC)c(OC)c1`, the EC50 was more than 7.94 µM and the IC50 is more than 7.94 µM.

In the case of `COC(=O)N/N=C/c1oc(-c2cccc([N+](=O)[O-])c2)c(-c2cccc([N+](=O)[O-])c2)c1[N+](=O)[O-]`, the EC50 was more than 79.4 µM and the IC50 was more than 79.4 µM.

As to `COC(=O)C1(Cc2ccccc2)Cc2ccccc2C1`, the EC50 was more than 200 µM and the concentration for half-maximal inhibition (IC50) stood at 35.5 µM.

Consider `CC(=O)O/C=C1/C[C@H]2[C@@H]3CCC4CC(C(C)=O)CC[C@]4(C)[C@H]3CC[C@]2(C)C1=O` (some centres not stated), for which the EC50 was more than 200 µM and the IC50 was found to be 107 µM.

In the case of `CC(C)(C)OC(=O)NNCC(O)COc1ccccc1` (configuration not stated), the EC50 is more than 200 µM and the IC50 turned out to be 91.2 µM.

Take `COC(=O)C(Cc1c[nH]c2ccccc12)NC(=O)C(Cc1cnc[nH]1)NC(=O)C1CCC(=O)N1C(=O)OCc1ccccc1` (configuration not stated): the EC50 was more than 200 µM and the IC50 is more than 200 µM.

Turning to `CC(=O)Nc1c(C(=O)O)[nH]c(=O)[nH]c1=O`, the EC50 was more than 200 µM and the IC50 was more than 200 µM.

In the case of `C(=C\c1c[nH]c2ccccc12)/c1nccc2ccccc12`, the EC50 is 0.0631 µM and the IC50 worked out at 107 µM.

`COCN1C(=O)[C@@H]2CCCN2C(=O)c2cc(OC)c(Cc3ccccc3)cc21`: the EC50 is more than 200 µM and the IC50 was more than 200 µM.

Turning to `C=CC1(C)CCC2C(=CCC3C2(C)CC(O)C(O)C3(C)COC2OC(CO)C(O)C(O)C2O)C1` (configuration not stated), the EC50 was more than 200 µM and the IC50 stood at 39.8 µM.

On to `CC1=CC(C)(C)NC(=S)N1c1ccccc1O`, for which the outcome was inactive.

Regarding `COc1ccc2nc3cc(Cl)ccc3c(NCCCN3CCN(CCCNc4ccc5nnn6c7ccccc7c(=O)c4c56)CC3)c2c1`, the EC50 is 0.00251 µM and the IC50 turned out to be 0.00794 µM.

As for `COC(=O)C(=O)C(C(=O)C(=O)Nc1ccccc1C(N)=O)c1nc2ccc(C(=O)c3ccccc3)cc2[nH]c1=O` (configuration not stated), the EC50 is more than 240 µM and the IC50 stood at 63.1 µM.

Regarding `COc1cc(OCc2ccccc2)c(O)cc1-c1coc2cc(OCc3ccccc3)ccc2c1=O`, the EC50 was more than 200 µM and the IC50 amounted to 4.27 µM.

`CCOC(=O)CNCc1cc(=O)[nH]c2cc(Cl)ccc12`: the EC50 is more than 200 µM and the IC50 came out at 40.7 µM.

Turning to `O=C(Nc1cccc(NC(=O)c2nn[nH]n2)n1)c1nn[nH]n1`, the EC50 was more than 200 µM and the IC50 is more than 200 µM.

As for `CC1N(C)C(=O)OC12CCN(CCCC(=O)c1ccc(F)cc1)CC2` (configuration not stated), the EC50 is more than 200 µM and the IC50 is more than 200 µM.

For `Cc1ccccc1Nc1cn(CCOc2ccccc2)c(=O)n(CCOc2ccccc2)c1=O`, the EC50 was more than 200 µM and the IC50 is more than 200 µM.

Take `O=S(=O)(O)c1ccc2c(c1)NN(c1ccc(/C=C/c3ccc(N=Nc4ccc(/C=C/c5ccc(N6Nc7ccc(S(=O)(=O)O)cc7N6)cc5S(=O)(=O)O)c(S(=O)(=O)O)c4)cc3S(=O)(=O)O)c(S(=O)(=O)O)c1)N2`: the EC50 was 12.3 µM and the IC50 stood at 123 µM.

Turning to `CN(C)c1ccc(/C=C(/NC(=O)c2ccccc2)c2nc3ccc(Cl)cc3[nH]2)cc1`, the EC50 was more than 17.4 µM and the IC50 was more than 17.4 µM.

Consider `CSCCC(NC(=O)c1ccccc1C(=O)O)C(=O)O` (configuration not stated), for which the EC50 was more than 200 µM and the half-inhibitory concentration (IC50) is more than 200 µM.

For the compound `Clc1ccc(-c2c(C3=NCCCN3)nnn2-c2ccccc2)cc1`, the EC50 was more than 389 µM and the IC50 is more than 389 µM.

For `COC1CCCCC1C(N)C(=O)O` (configuration not stated) (tested in a mixture with another compound), the EC50 was more than 200 µM and the IC50 was more than 200 µM.

As for `COC(=O)/C(=N/NC(N)=O)C(C(=O)OC)C(=O)C(=O)Nc1ccc(Cl)cc1` (configuration not stated), the outcome was inactive.

As to `O=S1(=O)CC2C1C1(c3ccccc3)OC2(c2ccccc2)c2ccccc21` (configuration not stated), the EC50 is more than 200 µM and the IC50 worked out at 20 µM.

Regarding `C=CC[C@H]1[C@@H](O[Si](C)(C)C(C)(C)C)[C@H](n2ccc(=O)[nH]c2=O)O[C@@H]1CO[Si](C)(C)C(C)(C)C`, the EC50 is more than 200 µM and the IC50 came out at 10 µM.

As for `c1ccc(C2ON2CCCN2OC2c2ccccc2)cc1` (configuration not stated), the EC50 was more than 200 µM and the IC50 is more than 200 µM.

Regarding `O=S(=O)(O)c1ccc(N=Nc2ccc(N=Nc3c(S(=O)(=O)O)cc4cc(S(=O)(=O)O)cc(O)c4c3O)cc2)cc1`, the outcome was inactive.

Turning to `O=C(O)C1CCC(c2ccc(F)cc2F)N1` (configuration not stated), the EC50 is more than 200 µM and the IC50 was more than 200 µM.

Turning to `COc1ccc(C(CC(=O)O)c2ccccc2)cc1` (configuration not stated), the EC50 was more than 708 µM and the IC50 came to 501 µM.

`O[C@@H]1CCN(Cc2ccccc2)C[C@@H]1CNC12CC3CC(CC(C3)C1)C2`: the EC50 is more than 72.4 µM and the IC50 was more than 72.4 µM.

For the origin of these results see PubChem BioAssay AID179 (DTP/NCI, 2004).
